Reference: patent US12312631B1, “High-throughput multiplexed sensitivity and resistance assay” (SAGEMEDIC CORPORATION, priority 2022, dated 2025)
Like-named read-outs stand apart in the source and are kept apart here.

Experiments:
[1] = 2% to 4% formalin
[2] = system: A549 cells; assay: ATP release into extracellular fluid or after lysis buffer, with or without Triton X, after PFA; type: cell-based
Procedure: In a factorial design, the cells were a) treated with 0%, 0.2%, or 1% PFA, and b) treated with or without 0.5% Triton X. ATP was then measured either from the extracellular fluids or within the wells after the use of a cell lysis buffer.
One out of 3 wells were incubated with 0%, 0.2%, and 1% PFA for 15 minutes and PFA was washed out 3 times with PBS. Half of the wells were then treated with 0.5% Triton X for 10 minutes and the other half received no Triton. The extracellular fluid from half of the 0.5% Triton X treated wells was then transferred to another well-plate and ATP was measured using a luciferin/luciferase complex. The other half of the 0.5% Triton X treated wells were first treated with a lysis buffer and then ATP was measured using the same luciferin/luciferase complex.

[3] = system: A549 cells
Procedure: Furthermore, since serum contains proteins, we wanted to know whether incubating and washing with serum could neutralize any potentially residual effect of PFA on ATP measurements. Thus, we created a 4×4 factorial design to expose the cells with 0.0625%, 0.25%, 1%, or 4% of PFA and 0%, 1%, 5%, or 25% of human serum.
For this experiment, A549 cells were plated in 96-well plates with 4 replicates of in 100 μl per well (cell culture medium was DMEM/F12 plus 10% human serum). Cells were fixed with the PFA concentrations for 5 min and washed 3× with phosphate-buffered saline (PBS).
The cells were then incubated at various serum concentrations for 10 min and then washed twice with PBS. Finally, luciferase catalyzed ATP luminescence was measured as per manufacturer's instructions.

[4] = system: luciferase
Procedure: We assessed four groups of A549 cells: with 0.0625% PFA, 0.25% PFA, 1% PFA, and 4% PFA, each of them at 0%, 1%, 5%, or 25% of human serum. For each group, A549 cells were plated in 96 well plates with 4 replicates of 1,000 cells at 100 μl per well. The cell culture medium was DMEM/F12 plus 10% human serum. Luciferase-catalyzed ATP luminescence was then measured using the CellTiter-Glo assay per manufacturer's instructions.
A combination of PFA and serum mixture was then created using a 4×4 factorial design of 0.0625%, 0.25%, 1%, or 4% of PFA, and 0%, 1%, 5%, or 25% of human serum, and incubated for 15 min at room temperature. The mixture was then added to the wells and a second round of RLU measurements were taken within 5 min.

[5] = system: A549 cells; settings: 2% or 4% PFA for 15 min, thoroughly washed out
Procedure: An experiment was therefore conducted to see what if any effect PFA had on cellular ATP content and whether it would still be possible to detect ATP in fixed tissue/cells. Four groups of cells were tested: • Group 1 was not pretreated with PFA (control). • Group 2 was treated with 2% PFA. • Group 3 was pretreated with 2% PFA that was then washed out. • Group 4 was pretreated with 4% PFA that was then washed out.
The experiment was conducted as follows. For each group, A549 cells (Catalog No. CCL-185, ATCC, Manassas, VA, USA) were plated in 96-well plates (200 μl/well) with 8 replicates of 1,000 cells in 50 μl cell culture medium per well (DMEM/F12 plus 10% human serum). Cells in group 1, the control group, was not treated with PFA. Cells in groups 2, 3, and 4 were incubated for 15 min. with 2%, 2%, and 4% PFA, respectively. PFA remained in the wells of group 2 and PFA was removed from groups 3 and 4 by washing 3 times with 100 μl Cell culture medium. Luciferase catalyzed ATP luminescence was measured as per CellTiter-Glo 3D manufacturer's instructions.
Luminescence was measured with a BioTek Synergy LX plate reader (Agilent, Santa Clara, CA, U.S.A.) and calculations were performed to quantify, measure, and/or correlate ATP level with cell viability.
We also used relative luminescence unit (RLU) as arbitrary units to calculate ATP level to cell viability.

## C=O [formalin]
[1]
  ATP still detectable in lysed cells after fixation: almost half

## Triton X
[2]; 0.5% Triton X alone for 10 minutes, no PFA, RLUs similar to lysis buffer
  ATP release: complete ATP release

## paraformaldehyde [PFA]
[3]; PFA 0.06%, average over serum levels
  RLU (ATP luminescence) Avg.: 47,729 RLU
[3]; PFA 0.06%, serum 0%
  RLU (ATP luminescence): 39,815 RLU
[3]; PFA 0.06%, serum 1%
  RLU (ATP luminescence): 46,022 RLU
[3]; PFA 0.06%, serum 5%
  RLU (ATP luminescence): 51,674 RLU
[3]; PFA 0.06%, serum 25%
  RLU (ATP luminescence): 53,405 RLU
[3]; PFA 0.25%, average over serum levels
  RLU (ATP luminescence) Avg.: 58,470 RLU
[3]; PFA 0.25%, serum 0%
  RLU (ATP luminescence): 44,249 RLU
[3]; PFA 0.25%, serum 1%
  RLU (ATP luminescence): 61,899 RLU
[3]; PFA 0.25%, serum 5%
  RLU (ATP luminescence): 59,651 RLU
[3]; PFA 0.25%, serum 25%
  RLU (ATP luminescence): 68,082 RLU
[3]; PFA 1%, average over serum levels
  RLU (ATP luminescence) Avg.: 40,598 RLU
[3]; PFA 1%, serum 0%
  RLU (ATP luminescence): 38,892 RLU
[3]; PFA 1%, serum 1%
  RLU (ATP luminescence): 45,576 RLU
[3]; PFA 1%, serum 5%
  RLU (ATP luminescence): 34,194 RLU
[3]; PFA 1%, serum 25%
  RLU (ATP luminescence): 43,731 RLU
[3]; PFA 4%, average over serum levels
  RLU (ATP luminescence) Avg.: 26,464 RLU
[3]; PFA 4%, serum 0%
  RLU (ATP luminescence): 22,097 RLU
[3]; PFA 4%, serum 1%
  RLU (ATP luminescence): 34,860 RLU
[3]; PFA 4%, serum 5%
  RLU (ATP luminescence): 23,912 RLU
[3]; PFA 4%, serum 25%
  RLU (ATP luminescence): 24,987 RLU
[3]; average over PFA concentrations, serum 0%
  RLU (ATP luminescence) Avg.: 36,263 RLU
[3]; average over PFA concentrations, serum 1%
  RLU (ATP luminescence) Avg.: 47,089 RLU
[3]; average over PFA concentrations, serum 5%
  RLU (ATP luminescence) Avg.: 42,358 RLU
[3]; average over PFA concentrations, serum 25%
  RLU (ATP luminescence) Avg.: 47,551 RLU
[3]; average over all PFA concentrations and serum levels
  RLU (ATP luminescence) Avg.: 43,315 RLU
[2]; 0.2% and 1% PFA, then 0.5% Triton X, same effect after cell lysis buffer
  ATP released into the extracellular fluid: inhibited in a dose-dependent manner
[2]; 0.2% or 1% PFA, without Triton X
  ATP leakage into the extracellular fluid: neither 0.2% nor 1% PFA lead to some ATP leakage
[4]; 1% PFA
  luciferase activity blocked: about 90%
[4]; 4% PFA
  luciferase activity blocked: almost completely blocked
[4]; up to 0.25% PFA added to the CellTiter-Glo solution
  change of RLUs: did not change the RLUs
[5]
  ATP luminescence compared with the control group: less than half of the control group
